In patent US5039512A, “NMR imaging with paramagnetic polyvalent metal salts of poly-(acid-alkylene-amino)-alkanes” (Salutar, Inc., priority 1987, dated 1991):

Columns and labels:
[1] = in vivo; cited from earlier work
[2] = in vivo
[3] = in vivo; cited from earlier work; remark: listed apart in the source
[4] = Relaxivities (T1, T2) of protons in water exposed to the complexes; type: physicochemical; details: Table 5
Procedure: (§1) c) Relaxitivities of protons present in water and plasma exposed to the complexes of (a) and (b) (at 10 mHz) (37° C.) in milliseconds:
(§2) c) Relaxivities of protons present in water and plasma exposed to (a) and (b) at 10 mHz (37 C) in milliseconds: […]

[5] = Relaxivities (T1, T2) of protons in plasma exposed to the complexes; type: physicochemical
Procedure: as §1, §2

[6] = Stability constant (binding ability) towards manganese; details: relative to the EDTA chelate
[7] = Table 5, 1.56 × 10^-3 moles/liter
[8] = Table 5, 3.13 × 10^-3 moles/liter
[9] = Table 5, 6.25 × 10^-3 moles/liter

O=C([O-])CN(CCN(CC(=O)[O-])CC(=O)O)CCN(CC(=O)[O-])CC(=O)O.[Gd+3] [Gd DTPA, gadolinium chelate of diethylene-triamine-pentaacetic acid]
Post T1 fat [1]: 185 milliseconds
Post T1 kidneys [1]: 205 milliseconds
Post T1 liver [1]: 195 milliseconds
Post T1 muscle [1]: 335 milliseconds
Post T1 spleen [1]: 285 milliseconds
Organ distribution [2]: does not substantially interact with the hepatobiliary system
Uptake by solid organs [3]: virtually no uptake by any solid organ
T1 water ([4]; 1.56 × 10^-3 moles/liter): 163 ms
T2 water ([4]; 1.56 × 10^-3 moles/liter): 155 ms
T1 water ([4]; 1.95 × 10^-4 moles/liter): 1015 ms
T1 water ([4]; 3.13 × 10^-3 moles/liter): 83 ms
T2 water ([4]; 3.13 × 10^-3 moles/liter): 76 ms
T1 water ([4]; 3.91 × 10^-4 moles/liter): 582 ms
T1 water ([4]; 6.25 × 10^-3 moles/liter): 40 ms
T2 water ([4]; 6.25 × 10^-3 moles/liter): 35 ms
T1 water ([4]; 7.81 × 10^-4 moles/liter): 309 ms
T1 plasma ([5]; 9.77 × 10^-5 moles/liter): 877 ms
T1 plasma [5, 7]: 134 ms
T2 plasma [5, 7]: 116 ms
T1 plasma ([5]; Table 5, 1.95 × 10^-4 moles/liter): 636 ms
T1 plasma [5, 8]: 69 ms
T2 plasma [5, 8]: 61 ms
T1 plasma ([5]; Table 5, 3.91 × 10^-4 moles/liter): 405 ms
T1 plasma [5, 9]: 39 ms
T2 plasma [5, 9]: 31 ms
T1 plasma ([5]; Table 5, 7.81 × 10^-4 moles/liter): 240 ms

O=C(O)CN(CC(=O)O)[C@@H]1CCCC[C@H]1N(CC(=O)O)CC(=O)O (relative stereo) [DCTA, trans-N,N,N',N'-tetra-carboxymethyl-1,2-diaminocyclohexane]
Stability constant (binding ability) towards manganese [6]: several thousand times better
